Measurements: patent EP1136472A1, “ARYL- AND HETEROARYLAMIDES OF CARBOALKOXYSULFANILIC ACIDS” (priority 1998, dated 2000)
Converted amounts (≈) assume the structure as drawn. Where two headings read alike, the source gives them in different places.

Key:
[1] = test system: Mycobacterium tuberculosis H37RV; experiment: Antimicrobial action, serial dilution method; assay type: cell-based; conditions: 72-hour cultivation at 37°C
[2] = test system: Human's platelet aggregation; experiment: Antiaggregational properties, ADP-induced platelet aggregation in platelet-rich plasma; assay type: cell-based; conditions: adenosine diphosphate 2.5 µmol/l
Protocol: Human's platelet aggregation was investigated in plasma of healthy 50±3 years donors that was enriched by thrombocytes, by means of aggregometer FRM-1. The substance under investigation was added to blood plasma samples (100 µg/ml) before inducing aggregation by means of adenosine diphosphate (2.5 µmol/l). Magnitude of the maximum non-reversible platelet aggregation in the control samples (solvent) was adopted as 100%, and that in tested samples was counted as percentage compared to the control. Inhibition of the aggregation by more than 50% at the given concentration was evaluated as meaningful inhibition. Adenosine (5 µg/ml) and aspirin (9 µg/ml), that inhibit aggregation at these concentrations by 100%, were utilized as reference agents.

[3] = test system: alanine-aminotranspherase (AlAT); experiment: Hepatoprotective activity, CCl4 liver damage in rats; assay type: in vivo
Protocol: CCl4 dissolved in 50% olive oil (1 ml/kg) was subcutaneously administrated to rats. Test substances were administrated perorally in a dose of 20 mg/kg 30 minutes before and 7 hours after the CCL4 administration. The activity of alanine-aminotranspherase (AlAT), which is a marker enzyme of liver parenchyma damage, was assessed twenty-four hours later. Reducing of enzyme amount by more than 30% relative to the control group was considered as evidence of hepatoprotective properties of the substance. Vitamin E in a dose of 100 mg/kg was used as a reference agent.

[4] = test system: Herpes Simplex virus of the type I (HSV-I /Leningrad/248/88); experiment: Antiviral effect on Herpes Simplex virus (cytopathogenic action on Vero cells); assay type: cell-based; conditions: compound concentration of 100 µg/ml; for Quantity of the unchanged cells: number of cells in 100 visual fields, after 36 hours; for percentage of protection: protection of cells from virus as compared to the control of cell culture
C.trachomatis D323 = experiment: Antichlamydial activity in infected cell culture (McCoy and L929); assay type: cell-based, Chlamydia trachomatis; conditions: 100 mg/l; for percentage of cell protection from infection / Number of unchanged cells: 48 hours; for Number of unchanged cells: counted in 100 visual fields
Protocol: The antichlamydial activity of the claimed compounds was studied in respect to C.trachomatis […], which is a standard strain contained in the collection of the department of microbiology of St. Petersburg State Pavlov Medical University. […] Cell cultures McCoy and L929 obtained from the Institute of Cytology of RAS were used in this work. Cells were grown in flasks made of neutral glass in the medium RPMI-1640 containing 10% of fetal calf serum. The test was performed in flat-bottom flasks made of glass (non-toxic), that were supplied with cover glasses. The cells were introduced into the medium in the final concentration of 1x10^6 cell/ml. […] Simultaneously, tested compounds in a final concentration of 100 mg/l were added to the cells. The sample was centrifuged at 2400 G for 60 minutes at a room temperature and incubated at 37°C for 2 hours. […] The samples were doubled using the medium without cycloheximide so as to exclude its effect on the investigated compounds. The samples were incubated for 48 hours in CO2-incubator. The controls included: • 1. Control of cell culture • 2. Control of action of solvents • 3. Control of action of chlamydia in absence of any compounds • 4. […] Control of the tested compounds as to toxicity in respect to the cell culture. Evaluation of the results was carried out by the way of determination of chlamydial cytoplasmatic inclusions (CPI) that was conducted by the method of immunofluorescence (MicroTrack Chlamydia trachomatis Direct Specimen Test), and by the way of determination of chlamydia antigens that was conducted by means of CylaMonoScreen (Russian-British Joint Venture 66 Regent's Parc Road London NW1 7SX). The effect of the action of compound was determined by analysis of the monolayer state and number of cells with CPI when compared with the control (cell culture infected with C.trachomatis […]); in doing so, the number of unchanged cells, that were counted in 100 visual fields obtained using the eyepiece-micrometer, was taken into consideration.

[5] = assay type: in vivo; conditions: mice, observed 72 hours, 300 was the maximally utilized
Protocol: Tested substance was introduced perorally (in dose of 300 mg/kg) through a gastric tube or intraperitoneally (in dose of 100 mg/kg) to no-breed white mice with mass 18-20 g (each tested group consisted of 3 males and 3 females). Then the mouse state was observed during 72 hours. Absence of symptoms characteristic of toxic effects, or absence of animal death during the given time allows to make a conclusion that the toxicity of the tested substance is low.

[6] = test system: primary culture of human lymphocytes; experiment: Interferon-inducing activity in primary culture of human lymphocytes (IFN-α immunoenzyme test); assay type: cell-based
Protocol: Interferon synthesis induction caused by the claimed compounds was conducted on a primary culture of human lymphocytes (it is these cells in a human organism that are the main producers of interferons). To obtain lymphocyte culture, fresh blood (within 12 hours after sampling) from healthy donors (not of group II) was used. To separate lymphocytes, heparinized blood obtained from healthy donor was centrifuged in a density gradient ficoll-verografin of […] in order to extract a fraction of immunocompetent cells. This fraction was selected and diluted with the nutrient medium RPMI-1640, containing 5% of fetal calf serum, 0.3 mg/ml of L-glutamin, 100 un/ml of penicillin, and 50 µg/ml of streptomycin. The concentration of lymphocytes was considered after dying them with methylene blue and calculation of cell number in a chamber of a hemocytometer. Initial solutions of the claimed compounds were diluted with the nutrient medium RPMI-1640 so that the final concentrations of the compounds, which were obtained after introduction of lymphocyte suspension, constituted the raw: 100 µg/ml, 10 µg/ml, 1 µg/ml. The final concentration of lymphocytes in the induction mixture was 3x10^6 cell/ml.
Control and test samples were incubated for 24 hours at the temperature of 37°C. After incubation, the samples were centrifuged at 2,000 G to deposit cell elements, and IFN-containing supernatant was separate out of the samples; then the supernatant was analyzed for the quantitative content of IFN. Cell deposition was resuspended in the preceding volume of nutrient medium, colored with vital dye trypan blue, and cell number was counted in a chamber of a hemocytometer (as described above) to determine cytotoxic action of the compounds.
Quantitative determination of the content of IFN in control and test samples was conducted using the immunoenzyme test system Pro Con IF2 Plus, that is intended for determination of IFN-α, which is produced by TOO "Protein contour". The solid-phase immunoenzyme method, utilizing horse radish peroxidase as an indicator enzyme, was used to determine the quantity of interferon in the samples. Activity of the bonded peroxidase was measured using an automatic photometer for microplates with a microprocessor at the wavelength of 450 nm.
Based on the obtained results, a calibrating curve was formed, which allows to obtain data expressed in international units (IU) of activity, using the microprocessor of the automatic photometer. The results of the analysis are expressed in IU of activity of IFN per ml in the given induction system, which contains 3x10^6 lymphocyte/ml. Each test and control point was investigated in four parallels.
Controls of immunoenzyme reaction: • 1. Control of DMSO with a nutrient medium. • 2. Control of system components (according to an instruction).
The obtained data were undergone a statistical analysis using t-criterion, and calculation of the confident interval of probability at p=0.05 was carried out. Coincidence between the results obtained in the parallel tests was analyzed.

[7] = Mycobacterium tuberculosis, H37RV, read-out: MIC

Compound: Carboheptoxysulfanylic acid (1,2,4-thiadiazole-2-hexyl-5-yl)amide [XXXIV]
- MIC [1]: 50 µg/mL

Compound: [H]/N=C(/N)N[C@H]1[C@H](O)[C@@H](O)[C@H](O[C@@H]2O[C@@H](C)[C@](O)(C=O)[C@H]2O[C@@H]2O[C@@H](CO)[C@H](O)[C@@H](O)[C@@H]2NC)[C@@H](N/C(N)=N\[H])[C@@H]1O [Streptomycin]
- MIC [1, 7]: 0.2 µg/mL (≈ 0.344 µM)

Compound: Nc1ncnc2c1ncn2[C@@H]1O[C@H](CO)[C@@H](O)[C@H]1O [Adenosine]
- inhibition at 5 µg/mL ([2]; Homo sapiens, Platelet, 5 µg/ml): 100%

Compound: NNC(=O)c1ccncc1 [Isoniazid]
- MIC [1, 7]: 0.1 µg/mL (≈ 0.729 µM)

Compound: CC[C@@H](CO)NCCN[C@@H](CC)CO [Ethambutol]
- MIC [1, 7]: 5 µg/mL (≈ 24.5 µM)

Compound: CC(=O)Oc1ccccc1C(=O)O [Aspirin, aspirin]
- inhibition at 9 µg/mL ([2]; Homo sapiens, Platelet, 9 µg/ml): 100%

Compound: Vitamin E [reference compound]
- % of reducing AlAT ([3]; Vitamin E in a dose of 100 mg/kg, reference agent): -30%

Compound: Rifampycin
- MIC [1]: 0.05 µg/mL

Compound: CCCCCCOC(=O)Nc1ccc(S(=O)(=O)Nc2ccccc2C)cc1 [XXIX, Carbohexoxysulfanylic acid (2-toluyl)amide]
- Quantity of the unchanged cells [4]: 6000
- percentage of protection [4]: 60%
- % of reducing AlAT ([3]; perorally 20 mg/kg 30 minutes before and 7 hours after CCl4, AlAT twenty-four hours later, relative to the control group): -36%
- % of inhibition ([2]; 100 µg/ml): 33.3±8.2%
- activity against chlamydia (in words) (C.trachomatis D323): marked biological activity against chlamydia
- percentage of cell protection from infection (C.trachomatis D323): 55%
- Number of unchanged cells (C.trachomatis D323): 4.400

Compound: CCCCOC(=O)Nc1ccc(S(=O)(=O)Nc2ccc([N+](=O)[O-])cc2)cc1 [VII, Carbobutoxysulfanylic acid (4-nitrophenyl)amide]
- Quantity of the unchanged cells [4]: 8000
- percentage of protection [4]: 80%
- Maximal tolerable dose: Concentration of tested compounds at oral introducing [5]: 300 mg/L

Compound: CC1COc2c(N3CCN(C)CC3)c(F)cc3c(=O)c(C(=O)O)cn1c23 (stereo not drawn) [Ofloxacin]
- MIC [1, 7]: 0.5 µg/mL (≈ 1.38 µM)

Compound: CCCCCOC(=O)Nc1ccc(S(=O)(=O)Nc2c(C)n(C)n(-c3ccccc3)c2=O)cc1 [XLI, Carbopentoxysulfanylic acid (1,5-dimethyl-2-phenylpyrazolone-4-yl)-amide]
- Quantity of the unchanged cells [4]: 7500
- percentage of protection [4]: 75%
- activity against chlamydia (in words) (C.trachomatis D323): marked biological activity against chlamydia
- percentage of cell protection from infection (C.trachomatis D323): 55%
- Number of unchanged cells (C.trachomatis D323): 4.400
- Content of IFN in induction mixture after 24-hour incubation ([6]; 1 mg/l): 5 ± 0.4 IU/3x10^4 lymph./ml
- Content of IFN in induction mixture after 24-hour incubation ([6]; 10 mg/l): 18.7 ± 0.2 IU/3x10^4 lymph./ml
- Content of IFN in induction mixture after 24-hour incubation ([6]; 100 mg/l): 69 ± 1 IU/3x10^4 lymph./ml
